These results are taken from PubChem BioAssay (NCI).

Common to all, as to assay: NCI tumour cell line growth inhibition, 48 h
Assay [1] relates to HCT-15 colon.
Assay [2] relates to A549 NSCLC.
Assay [3] has as its system K-562 leukemia.
The test system of assay [4] is OVCAR-5 ovarian.
In assay [5] the test system is 786-0 renal.
In assay [6] the test system is CCRF-CEM leukemia.
Assay [7] has as its system NCI-H226 lung.
The subject of assay [8] is CAKI-1 renal.
Assay [9] deals with MDA-MB-231 breast.

Molecules are shown by their SMILES.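 Step 1: Grow cells in 96-well plates. Step 2: Expose to compound for 48 hours at 5 concentrations. Step 3: Interpolate endpoints linearly; if unreached, use highest concentration. GI50: concentration for 50% inhibition of growth. At the TGI there is no net growth.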

On to `O=C(O)/C(=C/C=C/c1ccccc1)c1csc(-c2nc(/C(=C\C=C\c3ccccc3)C(=O)O)cs2)n1`, for which the TGI is above 100 µM in [1]; above 100 µM in assay [2]; 54.6 µM in [3]; above 100 µM in [4]; 56.1 µM in assay [5]; 45.6 µM in assay [6].
In the case of `C1CCN(c2nc(=[N+]3CCCCC3)ss2)CC1`, the TGI in [1], in assay [2], in assay [3], in [7], in [4] and in assay [5] was above 100 µM throughout. Further, the TGI in assay [8] and in assay [6] was above 100 µM throughout.
`COc1cc(OC)c(C2CC=Cc3c(OC)cc(OC)c(OC)c32)cc1OC` (stereo not drawn): the TGI in assay [1], in assay [2], in [3], in [7], in [4] and in [5] was above 100 µM each time. Also, the TGI in assay [8] and in [6] was above 100 µM in each case.
With `Clc1ccc(C2SCc3nc4ccccc4n32)cc1Cl` (stereo not drawn), the TGI in assay [1] was 28.4 µM; in assay [2] it was 32.6 µM; in assay [3], above 100 µM; in assay [7], 41.3 µM; in assay [4] it was 22.8 µM; in assay [5] it was 27.3 µM. Further, the results for the TGI in [8] and in assay [6] were 27 µM and above 100 µM, respectively.
In the case of `CCC(=O)c1c(NOC2OC(COC(C)=O)C(OC(C)=O)C(OC(C)=O)C2OC(C)=O)nc(OC)n(C)c1=O` (stereo not drawn), the TGI in assay [1], in assay [2], in [3], in assay [7], in assay [4] and in assay [5] was above 100 µM each time. In assay [6], the TGI is above 100 µM.
As to `NCCCNCCCCN(CCCN)/[N+]([O-])=N\O`, the TGI in assay [1], in [2], in assay [3], in assay [7], in [4] and in assay [5] was above 100 µM each time. Also, the TGI in assay [8] and in [6] was above 100 µM throughout.
`COc1cc2c3c(c1OC)-c1c(ccc4c1OCO4)CC3(C#N)N(C(=O)c1ccccc1)CC2` (stereo not drawn): the TGI in [1], in assay [2], in assay [3], in assay [7], in [4] and in assay [5] was above 100 µM in each case. For the same molecule, the TGI in [8] and in assay [6] was above 100 µM in each case.
As for `COC(=O)c1c(N)n[nH]c1N`, the TGI in assay [2], in [3], in assay [5], in assay [8] and in assay [6] was above 100 µM throughout.
For `CC(=O)c1ccc(NC(=O)C(=O)Nn2c(=S)[nH]c3ccccc3c2=O)cc1`, the TGI in assay [1], in assay [2], in [3], in [7], in assay [4] and in [5] was above 100 µM in each case. Moreover, the TGI in [8] is above 100 µM.
As for `O=C(Nc1nc2ncn(CCNCc3ccccc3)c2c(=O)[nH]1)c1ccccc1`, the TGI in assay [1], in assay [2], in assay [3], in [7], in assay [4] and in assay [5] was above 100 µM in each case. Besides, the TGI in assay [8] and in assay [6] was above 100 µM each time.
On to `Cc1cc(C)nc(NS(=O)(=O)c2ccc(Nc3c4ccc(Cl)cc4nc4c(C(=O)Nc5ccc(S(N)(=O)=O)cc5)cccc34)cc2)n1`, for which the TGI is 36.2 µM in [1]; above 100 µM in assay [3]; 28.8 µM in assay [4]; 28.7 µM in assay [5]; above 100 µM in assay [6].
For `COC(=O)CCC(=O)CC(=O)C(=O)Nc1c(Cl)cc([N+](=O)[O-])cc1Cl`, the TGI in [1], in assay [2], in assay [3], in [7], in assay [4] and in assay [5] was above 100 µM each time. The TGI in assay [8] and in assay [6] was above 100 µM each time.
As to `O=C(CC1(O)C(=O)Nc2c(Cl)cc(Cl)cc21)c1cccc2ccccc12` (stereo not drawn), the TGI in assay [1] amounted to 31 µM; in [2], 29.8 µM; in assay [3] it was 36.6 µM; in assay [7], 31.1 µM; in assay [4], 37.1 µM; in [5], 29.7 µM. Further, the TGI was found to be 25.3 µM in [8] and 41.3 µM in assay [6].
In the case of `O=CC[C@H]1CCc2ccccc2C12CCC(=O)CC2`, the TGI in assay [1], in assay [2], in assay [3], in assay [7], in [4] and in assay [5] was above 100 µM in each case. Further, the TGI in assay [8] and in assay [6] was above 100 µM in each case.
For the molecule `CC(C)(C)c1cc2c3c(c1)C(C(F)(F)F)(C(F)(F)F)O[Te]3(C)OC2(C(F)(F)F)C(F)(F)F`, the TGI in assay [1], in assay [2], in assay [3], in [7], in [4] and in assay [5] was above 100 µM each time. Moreover, the TGI in [8] and in assay [6] was above 100 µM in each case.
As to `O=C1C2C3C=CC(C2C(=O)N1COP(=O)(O)O)C1C2C(=O)N(COP(=O)(O)O)C(=O)C2C31` (stereo not drawn), the TGI in assay [1] is above 57.9 µM; in assay [2] it was above 100 µM; in assay [3], above 100 µM; in [7], above 100 µM; in assay [4], above 100 µM; in assay [5] it was above 100 µM. The results for the TGI in [8] and in assay [6] were above 100 µM and above 60.7 µM, respectively.
`Fc1ccccc1C1CC(c2ccc3ccccc3c2)=Nc2ccccc2S1` (stereo not drawn): the TGI in assay [2], in [7], in assay [4], in assay [5], in assay [8] and in assay [6] was above 100 µM each time.
For `CN1c2ccccc2C(C)(C)C12C=Cc1cc(O)ccc1O2` (stereo not drawn), the GI50 in [1] was 3.41 µM; in assay [2], 4.46 µM; in assay [3], 3.09 µM; in [9], 3.93 µM; in assay [7], 13.3 µM; in [4], 10.2 µM. Also, the figures for the GI50 in assay [5], in assay [8] and in assay [6] were 2.77 µM, 3.37 µM and 2.87 µM, respectively. For the same molecule, the TGI is 14 µM in assay [1]; 19.9 µM in assay [2]; above 100 µM in [3]; 16.3 µM in [9]; 28.8 µM in assay [7]; 25.2 µM in [4]. Moreover, the TGI was 8.96 µM in [5], 12.4 µM in [8] and 10.2 µM in assay [6].
Regarding `O=[N+]([O-])c1cccc(-c2oc(C=Nc3ccccc3)c([N+](=O)[O-])c2-c2cccc([N+](=O)[O-])c2)c1`, the TGI in assay [2], in assay [3], in assay [7], in [4], in assay [5] and in assay [6] was above 100 µM throughout.
With `C[C@]1(CO)CCC[C@@]2(C)C1CC[C@H]1CC3C[C@]12CC[C@]3(C)O` (stereo partly drawn), the TGI in [1], in [2], in assay [3], in [7], in assay [4] and in [5] was above 100 µM throughout. Also, in [8], the TGI is above 100 µM.
On to `C=C(Br)N(CC)CC`, for which the TGI in [1], in [2], in [3], in [7], in assay [4] and in assay [5] was above 100 µM each time. Moreover, the TGI in [8] and in [6] was above 100 µM in each case.
As for `COC1OC(COCc2ccc(Cl)cc2)C(OCc2ccc(Cl)cc2)C1N=[N+]=[N-]` (stereo not drawn), the TGI in assay [1] is above 100 µM; in [2], 16 µM; in [3], above 100 µM; in assay [7], above 100 µM; in assay [4] it was above 100 µM; in assay [5], 16.8 µM. This molecule also gave a TGI in assay [8] above 100 µM.
With `C1=CC=C2NCCCNC3=CC=CC=CC3=NCCCN=C2C=C1`, the TGI in assay [1], in assay [2], in [3], in [7], in [4] and in assay [5] was above 100 µM throughout. In assay [6], this molecule gave a TGI above 100 µM.
In the case of `CN(C)CCNC(=O)c1cccc2c1nc(-c1ccccc1)c1ccccc12`, the TGI amounted to 13.1 µM in assay [1]; 15 µM in assay [2]; 6.32 µM in assay [3]; 12.5 µM in [7]; 17.6 µM in [4]; 16.6 µM in assay [5]. In addition, the figures for the TGI in assay [8] and in assay [6] were 18.4 µM and 10.1 µM, respectively.
In the case of `O=C(Cc1nc2ccccc2s1)Nc1cccc(C(F)(F)F)c1`, the TGI in assay [1] came out at 30.3 µM; in assay [2], 45.4 µM; in assay [3], 29.8 µM; in assay [7], 44.7 µM; in assay [4], 32.5 µM; in assay [5], 27.2 µM. In addition, the figures for the TGI in [8] and in [6] were 31.6 µM and 4.79 µM, respectively.
`CC1C[C@@H]2C(=O)NC(=O)[C@@H]2c2c1c1ccccc1n2C` (stereo partly drawn): the TGI in assay [1], in [2], in assay [3], in [7], in assay [5] and in assay [8] was above 100 µM each time. Further, the TGI in assay [6] is above 100 µM.
On to `CCc1cccc(C(C)C)c1NC(=O)C(=O)C(CC(=O)Nc1ccc(Cl)c(Cl)c1)C(=O)OC` (stereo not drawn), for which the TGI is 32.8 µM in assay [1]; above 100 µM in assay [2]; above 100 µM in assay [3]; above 100 µM in [7]; above 100 µM in assay [4]; above 100 µM in assay [5]. Moreover, the TGI in assay [8] and in assay [6] was above 100 µM each time.
`COCCCNC(=O)CC(=O)NCCCOC`: the TGI in assay [1], in [2], in [3], in [4], in assay [5] and in assay [6] was above 100 µM throughout.
In the case of `CS(=O)(=O)N(N(CCCl)S(=O)(=O)c1ccccc1)S(C)(=O)=O`, the TGI in [1], in [2], in assay [3], in assay [7], in assay [5] and in assay [8] was above 100 µM in each case. In addition, the TGI in [6] was above 100 µM.
Regarding `S=c1cc(S)sc2c1c(=S)sc1nc3ccccn3c(=S)c12`, the TGI in assay [1], in assay [2], in [3], in assay [7], in assay [4] and in assay [5] was above 100 µM in each case. Besides, the TGI in assay [8] and in [6] was above 100 µM in each case.
For `O=C(Cn1ccnc1[N+](=O)[O-])c1ccc(F)cc1`, the TGI in assay [1], in [2], in assay [3], in assay [7], in assay [4] and in [5] was above 100 µM throughout. Moreover, the TGI in assay [8] and in assay [6] was above 100 µM in each case.
As to `O=C(CCC(=O)C(C(=O)c1ccccc1)c1ccccc1)Nc1cccc(C(F)(F)F)c1` (stereo not drawn), the TGI in [1], in assay [2], in assay [3], in [7], in [4] and in assay [5] was above 100 µM in each case. Also, the TGI in assay [8] and in assay [6] was above 100 µM in each case.
Turning to `CCCCCCCCCCCCCP(=O)(O)OCC`, the TGI in assay [1], in assay [2], in assay [7], in [4], in [5] and in assay [6] was above 100 µM each time.
`O=[N+]([O-])c1cccc(C2ON2C2CCCCC2)c1` (stereo not drawn): the TGI in [1] is 30.7 µM; in [2], 84.5 µM; in [3] it was 60.3 µM; in assay [4] it was above 100 µM; in assay [5], 31.2 µM; in assay [8], 58.7 µM. The TGI in assay [6] is 36.7 µM.
